According to the NIST ThermoML archive (doi:10.1021/je100290a):

Assays:
[1] = xn = mol fraction of the nth substance listed; conditions: 101 kPa, Liquid
[2] = 101 kPa, Liquid

OCCO [1,2-ethanediol] + NCCN
[1], x2 = 0
Conditions | mass density [kg/m3] | viscosity [mPa·s]
298.15 K | – | 16.8
303.15 K | 1105.8 | 13.4
308.15 K | – | 11.33

NCCN [ethane-1,2-diamine] + OCCO
[1]
Conditions | mass density, 298.15 K [kg/m3] | mass density, 303.15 K [kg/m3] | mass density, 308.15 K [kg/m3] | viscosity, 298.15 K [mPa·s] | viscosity, 303.15 K [mPa·s] | viscosity, 308.15 K [mPa·s]
x1 = 0.1027 | 1096.6 | 1089.8 | 1084.4 | 22.28 | 17.6 | 14.05
x1 = 0.1541 | 1086.6 | 1080.9 | 1073.8 | 25.54 | 20.56 | 16.93
x1 = 0.2052 | 1078.4 | 1072.4 | 1062.4 | 28.37 | 22.44 | 18.21
x1 = 0.2561 | 1068.5 | 1062.2 | 1053.8 | 30.73 | 23.15 | 19.28
x1 = 0.3066 | 1061.4 | 1053.5 | 1042.9 | 31.46 | 23.66 | 19.2
x1 = 0.3568 | 1051 | 1042.8 | 1033.8 | 30.7 | 22.85 | 18.5
x1 = 0.4078 | 1040.4 | 1034.8 | 1026.6 | 28.32 | 21.31 | 17
x1 = 0.508 | 1018.5 | 1013.9 | 1007.2 | 20.17 | 15.18 | 11.89
x1 = 0.5579 | 1006.6 | 1000.7 | 994.7 | 16.06 | 12.27 | 8.772
x1 = 0.6065 | 995.4 | 988.3 | 981.8 | 12.51 | 9.748 | 6.254
x1 = 0.6573 | 983.1 | 976.2 | 968.7 | 9.028 | 7.157 | 4.674
x1 = 0.7071 | 970.1 | 964.5 | 956.1 | 6.882 | 5.681 | 4.008
x1 = 0.756 | 957.3 | 951.7 | 944.4 | 5.154 | 4.177 | 3.547
x1 = 0.8051 | 946.2 | 938.8 | 931.7 | 3.787 | 3.154 | 2.683
x1 = 0.8542 | 933.4 | 924.9 | 917.5 | 3.199 | 2.552 | 2.128
x1 = 0.9003 | 919.1 | 913.4 | 907.2 | 2.273 | 1.92 | 1.713
x1 = 0.9438 | 908.8 | 903.4 | 897.5 | 1.8 | 1.561 | 1.422
x1 = 1 | 894.5 | 890.8 | 885.6 | 1.276 | 1.211 | 1.107

NCCN [ethane-1,2-diamine]
[2]
Conditions | mass density [kg/m3] | viscosity [mPa·s]
298.15 K | 894.5 | 1.276
303.15 K | 890.8 | 1.211
308.15 K | 885.6 | 1.107

OCCO [1,2-ethanediol]
[2]
Conditions | mass density [kg/m3] | viscosity [mPa·s]
298.15 K | – | 16.8
303.15 K | 1105.8 | 13.4
308.15 K | – | 11.33
